Assays:
human serum albumin = conditions: cited from earlier work
bovine serum albumin = system: bovine serum albumin; design: method as in PMID 24456893, PMID 18779351, PMID 17569519; conditions: ref [12],[16],[17]; cited from earlier work
Protocol: (§1) Albumin is the most abundant protein in human serum (HSA, 45 mg/ml), followed in descending order by α1-antitrypsin (A1AT, 3.5 mg/ml), transferrin (2.5 mg/ml), α2-macroglobulin (2.5 mg/ml), haptoglobulin (1.8 mg/ml), low-density lipoprotein (LDL, 1.2 mg/ml), α1-acid glycoprotein (AGP, 0.8 mg/ml) and high-density lipoprotein (HDL, 0.6 mg/ml)[11]. These proteins are involved in the transportation of fatty acids, cholesterols, toxins and drugs in the blood stream.

[1] = molecular target: T1, protein D (albumin and α1-antitrypsin complex) (Bos taurus, UniProt P02769+P34955); assay: Fluorescence emission spectrum (blue shift), protein D; format: binding, bovine; conditions: protein D 0.75 μM, PC buffer, 25 °C, 30 min; excitation 285 nm, emission 300–450 nm; reagent up to: sarkosyl 320, TP4-A12I,A15I 120, ibuprofen 24, phenytoin 20 μM
T1 construct: The active components were further purified by fast performance liquid chromatography (FPLC) Mono Q and S12 column chromatography from the 70% saturated fraction; from tissue; host or cells: fetal bovine serum (70% ammonium sulfate fraction, FPLC Mono Q and Superose 12)
Protocol: (§2) The mixtures were excited by 285 nm and its emission spectra were recorded between 300 and 450 nm using a temperature-controlled fluorimeter (FP8500, Jasco, Japan)[13].

protein A (albumin) = protein A (albumin) (Bos taurus, UniProt P02769); assay: Fluorescence emission spectrum (blue shift), protein A; format: binding, bovine; design: The homogeneities of collected protein A (albumin), protein B (α1-antitrypsin), protein C (serotransferrin) and protein D complex; from tissue; host or cells: fetal bovine serum (70% ammonium sulfate fraction, FPLC Mono Q); conditions: protein A 0.75 μM, PC buffer, 25 °C, 30 min; excitation 285 nm, emission 300–450 nm; reagent up to: sarkosyl 320, TP4-A12I,A15I 120, ibuprofen 24, phenytoin 20 μM
Protocol: as §2

[2] = molecular target: T2, protein B (α1-antitrypsin) (Bos taurus, UniProt P34955); assay: Band shift of AMPs by protein B; format: binding, bovine; design: The homogeneities of collected protein A (albumin), protein B (α1-antitrypsin), protein C (serotransferrin) and protein D complex; from tissue; host or cells: fetal bovine serum (70% ammonium sulfate fraction, FPLC Mono Q); conditions: AMP 4 μg; protein 10 μg (Suppl. Fig. 3a); PC buffer, room temperature, 30 min; 8% horizontal native PAGE
T2 sequence (P34955 25-416): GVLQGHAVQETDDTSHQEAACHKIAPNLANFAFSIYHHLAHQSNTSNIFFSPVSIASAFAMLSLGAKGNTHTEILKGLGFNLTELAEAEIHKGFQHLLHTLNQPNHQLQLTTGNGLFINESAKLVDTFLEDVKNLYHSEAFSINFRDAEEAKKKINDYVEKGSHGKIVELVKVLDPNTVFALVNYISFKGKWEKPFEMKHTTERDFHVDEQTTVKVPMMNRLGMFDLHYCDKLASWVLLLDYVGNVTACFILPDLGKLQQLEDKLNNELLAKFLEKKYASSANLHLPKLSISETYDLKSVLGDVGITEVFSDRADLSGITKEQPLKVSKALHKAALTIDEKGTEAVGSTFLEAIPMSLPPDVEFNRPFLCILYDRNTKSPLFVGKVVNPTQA
Protocol: (§3) Various AMPs (4 μg each) were incubated with fetal bovine serum (FBS) components at room temperature in 10 μl PC buffer for 30 min and subjected to horizontal native 8% PAGE, pH8.0 or pH8.8, and Coomassie Blue staining.

[3] = molecular target: T1, protein D (albumin and α1-antitrypsin complex); assay: Band shift of AMPs by protein D; format: binding, bovine; conditions: AMP 4 μg; protein 10 μg (Suppl. Fig. 3a); PC buffer, room temperature, 30 min; 8% horizontal native PAGE
fetal bovine serum (FBS) = assay: Band shift of AMPs by fetal bovine serum; format: binding; conditions: 10–40% FBS; AMP 4 μg; PC buffer, room temperature, 30 min; horizontal native 8% PAGE
Protocol: as §3

[4] = system: Escherichia coli K-12 (MG1655); assay: Antimicrobial (bactericidal) activity against E. coli, effect of serum or serum proteins; format: cell-based; conditions: 5% (v/v) FBS in PBS, 37 °C; remaining viable cells (cfu)
Protocol: The Gram-negative bacteria Escherichia coli K-12 (MG1655) was cultured and plated in/on Luria–Bertani broth/agar plate (Merck Millipore, Darmstadt, Germany). The Gram-positive Staphylococcus aureus (ATCC 6538P) was cultured and plated in tryptic soy broth/agar (BD, MD, USA). The fungus Candida albicans (ATCC 14,053) was cultured and plated in YM broth/agar (BD, MD, USA). The bacteria were grown overnight, washed, and diluted 1:2000 in phosphate buffered saline (PBS), pH 7.5 or DMEM (Life Biotech, California, USA), pH 7.4. Bacteria (ca. 1 × 10^6 colony-forming units, cfu) were mixed with antimicrobial peptides (AMP) in 100 μl PBS and incubated at 37 °C (for bacteria) and at 30 °C (for fungus). Serial dilutions of each AMP-treated bacteria in PBS/DMEM supplemented with FBS were prepared and plated for the determination of remaining viable cells (expressed as cfu). At least three independent experiments were performed for each assay to determine the average value with standard deviation. MBC was defined as the lowest AMP concentration that kills 99.9% of the original inoculum.

human serum components = conditions: cited from earlier work
Protocol: as §1

trypsin = assay: Antitrypsin activity analysis; format: biochemical; conditions: trypsin 2 ng (0.2 μg/ml) pre-incubated 30 min, PC buffer, 37 °C, 15% reduced SDS-PAGE; for inhibition of proteolytic activity of trypsin toward SAAP159: substrate SAAP159 4 μg (0.4 mg/ml); for inhibition of proteolytic activity of trypsin toward TP4: substrate TP4 2 μg (0.2 mg/ml)
Protocol: The inhibitions of trypsin’s proteolytic activity by serum components on peptides TP4 and SAAP159 were determined as follows. Freshly diluted trypsin (2 ng; 0.2 μg/ml) was pre-incubated with various concentrations of serum components in PC buffer for 30 min before the mixture was added to TP4 (2 μg; 0.2 mg/ml) or SAAP159 (4 μg/; 0.4 mg/ml) peptides in 10 μl PC buffer at 37 °C for 30 min. The digested peptide fragments were analyzed by 15% reduced SDS-PAGE and Coomassie Blue staining.

[5] = molecular target: biotinylated TP4-A12I,A15I (tilapia); assay: BLI; Octet RED384; biotinylated TP4-A12I,A15I (10 μM) immobilised on a Streptavidin biosensor; serial dilutions of serum components in PC buffer as analyte; global fit (1:1)

T1 sequence (P02769 25-607, one chain of several): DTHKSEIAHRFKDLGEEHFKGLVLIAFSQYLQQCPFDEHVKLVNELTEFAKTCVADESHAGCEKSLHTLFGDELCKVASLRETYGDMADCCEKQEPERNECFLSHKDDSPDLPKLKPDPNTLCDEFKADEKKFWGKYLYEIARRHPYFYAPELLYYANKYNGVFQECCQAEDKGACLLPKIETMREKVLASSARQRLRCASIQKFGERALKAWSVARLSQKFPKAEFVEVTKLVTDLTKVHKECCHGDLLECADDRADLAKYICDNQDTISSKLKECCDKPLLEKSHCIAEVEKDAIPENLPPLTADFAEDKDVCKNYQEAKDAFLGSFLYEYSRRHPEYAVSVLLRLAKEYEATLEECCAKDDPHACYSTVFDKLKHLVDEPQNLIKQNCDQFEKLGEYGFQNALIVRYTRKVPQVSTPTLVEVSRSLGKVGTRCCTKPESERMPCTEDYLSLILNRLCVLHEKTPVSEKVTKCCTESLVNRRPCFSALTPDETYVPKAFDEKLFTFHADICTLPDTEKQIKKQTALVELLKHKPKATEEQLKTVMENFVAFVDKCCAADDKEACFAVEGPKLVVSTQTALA
Sequence of protein A (albumin) (P02769 25-607): as the sequence (P02769 25-607, one chain of several) above

In the case of `CO/N=C(\C(=O)N[C@@H]1C(=O)N2C(C(=O)O)=C(CSc3nc(=O)c(=O)[nH]n3C)CS[C@H]12)c1csc(N)n1` [ceftriaxone], the “bound and inhibited by human serum albumin” value (human serum albumin; ref [12],[16],[17]) is given as “bound and inhibited” and the “bound and inhibited by bovine serum albumin” value (bovine serum albumin) is given as “bound and inhibited”.

For `COc1c(N2C[C@@H]3CCCN[C@@H]3C2)c(F)cc2c(=O)c(C(=O)O)cn(C3CC3)c12` [moxifloxacin], the “bound and inhibited by bovine serum albumin” value (bovine serum albumin) is listed as “bound and inhibited”.

In the case of `CCCCCCCCCCCC(=O)N(C)CC(=O)[O-].[Na+]` [sarkosyl], the “blue shift of fluorescence emission spectrum, protein D” value [1] is reported as “caused blue shifts” and the “blue shift of fluorescence emission spectrum, protein A” value (protein A (albumin)) is reported as “caused blue shifts”.

In the case of `CC(=O)CC(c1ccccc1)c1c(O)c2ccccc2oc1=O` (stereo not drawn) [warfarin], the “bound to site I of human albumin” value (human serum albumin; site I, ref [8]–[10]) is given as “More than 90%”.

For Iseganan [reference compound], the “binding to protein B (band shift)” value [2] was “not by protein A and protein B”, the “binding to protein D (band shift)” value [3] was “also bound by protein D” and the “mobility of AMP in band shift assay with FBS” value (fetal bovine serum (FBS)) was “retarded”. For the same molecule, the “effect of FBS on antimicrobial activity against E. coli” value [4] was “serum-mediated repression”.

In the case of Polymyxin B, the “effect of FBS on antimicrobial activity against E. coli” value [4] is reported as “not”.

In the case of daptomycin, the “bound to human serum components” value (human serum components) is given as 90-94%, the “order of binding to human serum components” value (human serum components) is given as “albumin > > α1-antitrypsin > low-density lipoprotein > high-density lipoprotein > transferrin” and the “bound by human serum albumin” value (human serum albumin) is given as 90-94%.

For “protein A: bovine serum albumin, free form, purified from fetal bovine serum”, the “inhibition of proteolytic activity of trypsin toward SAAP159” value (“inhibition … of trypsin toward SAAP159” below) (trypsin) was “only minimally affected” and the “inhibition of proteolytic activity of trypsin toward TP4” value (from here on “inhibition … of trypsin toward TP4”) (trypsin) was “only minimally affected”.

“protein D complex (albumin and α1-antitrypsin) (from UniProt P02769 25-607; P34955 25-416)” gave a Kd [5] of 21.7 nM.

With “protein D: albumin and α1-antitrypsin complex linked by disulfide bond, from fetal bovine serum” the “inhibition … of trypsin toward SAAP159” value (trypsin) was “repressed” and the “inhibition … of trypsin toward TP4” value (trypsin) was “repressed”.

B1: protein B: bovine α1-antitrypsin, free form, purified from fetal bovine serum (protein)
chain: T2 sequence (P34955 25-416)
For B1, the “inhibition … of trypsin toward SAAP159” value (trypsin) was “repressed” and the “inhibition … of trypsin toward TP4” value (trypsin) was “repressed”.

Source: PMC7809101, “Fetal bovine serum albumin inhibits antimicrobial peptide activity and binds drug only in complex with α1-antitrypsin” (Scientific Reports, 2021)
